In general, IC50 refers to the point on the concentration scale where inhibition reaches its midpoint. Lower therefore signals inhibition by little substance.

In experiment [1] the target is T1, human TLR7 (Homo sapiens, UniProt Q9NYK1).
T1 construct: host or cells: HEK-Blue cells
T1 sequence (Q9NYK1 27-1049): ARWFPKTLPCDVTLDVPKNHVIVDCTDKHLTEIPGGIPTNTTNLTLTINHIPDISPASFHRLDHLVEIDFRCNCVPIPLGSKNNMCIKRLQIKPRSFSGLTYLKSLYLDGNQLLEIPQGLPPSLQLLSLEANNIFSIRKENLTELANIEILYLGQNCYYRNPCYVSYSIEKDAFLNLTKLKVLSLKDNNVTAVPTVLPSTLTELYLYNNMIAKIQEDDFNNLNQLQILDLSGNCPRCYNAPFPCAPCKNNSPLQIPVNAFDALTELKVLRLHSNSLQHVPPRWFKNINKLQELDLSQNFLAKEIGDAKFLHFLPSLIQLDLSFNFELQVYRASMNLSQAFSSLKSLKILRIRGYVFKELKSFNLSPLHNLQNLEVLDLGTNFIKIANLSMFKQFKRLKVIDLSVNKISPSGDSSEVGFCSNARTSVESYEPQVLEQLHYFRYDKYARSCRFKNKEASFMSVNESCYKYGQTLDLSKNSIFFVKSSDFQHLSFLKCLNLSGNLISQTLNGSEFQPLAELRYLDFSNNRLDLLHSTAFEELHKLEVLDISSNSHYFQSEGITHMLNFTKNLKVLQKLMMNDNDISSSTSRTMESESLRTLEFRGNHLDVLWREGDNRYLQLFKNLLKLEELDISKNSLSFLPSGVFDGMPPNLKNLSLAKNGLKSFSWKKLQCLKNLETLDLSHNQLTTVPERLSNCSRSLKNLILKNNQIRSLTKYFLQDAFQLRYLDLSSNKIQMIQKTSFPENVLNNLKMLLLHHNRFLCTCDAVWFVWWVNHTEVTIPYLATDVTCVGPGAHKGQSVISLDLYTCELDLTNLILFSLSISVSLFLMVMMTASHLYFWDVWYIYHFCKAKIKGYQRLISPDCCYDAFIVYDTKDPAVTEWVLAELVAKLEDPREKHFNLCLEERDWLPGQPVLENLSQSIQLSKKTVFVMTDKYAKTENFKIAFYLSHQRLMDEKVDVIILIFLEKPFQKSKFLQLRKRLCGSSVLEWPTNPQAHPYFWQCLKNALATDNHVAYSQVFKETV
Description: TLR7 inhibition reporter assay (HEK-Blue cells, SEAP reporter, gardiquimod stimulation). The format is cell-based. Particulars: HEK-Blue cells overexpressing human TLR7, gardiquimod 7.5 μM. In a few lines: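 Cells (15000/well for TLR7, 20,000 for TLR8) were treated with compounds over 0.05 nM-50 μM final. After 22 h at 37° C, 5% CO2, SEAP was measured with HEK-Blue Detection reagent; percent inhibition was taken as reduction of agonist-plus-DMSO signal relative to a known inhibitor.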

The target in experiment [2] is T2, human TLR9 (Homo sapiens, UniProt Q9NR96).
T2 construct: host or cells: HEK-Blue cells
T2 sequence (Q9NR96 26-1032): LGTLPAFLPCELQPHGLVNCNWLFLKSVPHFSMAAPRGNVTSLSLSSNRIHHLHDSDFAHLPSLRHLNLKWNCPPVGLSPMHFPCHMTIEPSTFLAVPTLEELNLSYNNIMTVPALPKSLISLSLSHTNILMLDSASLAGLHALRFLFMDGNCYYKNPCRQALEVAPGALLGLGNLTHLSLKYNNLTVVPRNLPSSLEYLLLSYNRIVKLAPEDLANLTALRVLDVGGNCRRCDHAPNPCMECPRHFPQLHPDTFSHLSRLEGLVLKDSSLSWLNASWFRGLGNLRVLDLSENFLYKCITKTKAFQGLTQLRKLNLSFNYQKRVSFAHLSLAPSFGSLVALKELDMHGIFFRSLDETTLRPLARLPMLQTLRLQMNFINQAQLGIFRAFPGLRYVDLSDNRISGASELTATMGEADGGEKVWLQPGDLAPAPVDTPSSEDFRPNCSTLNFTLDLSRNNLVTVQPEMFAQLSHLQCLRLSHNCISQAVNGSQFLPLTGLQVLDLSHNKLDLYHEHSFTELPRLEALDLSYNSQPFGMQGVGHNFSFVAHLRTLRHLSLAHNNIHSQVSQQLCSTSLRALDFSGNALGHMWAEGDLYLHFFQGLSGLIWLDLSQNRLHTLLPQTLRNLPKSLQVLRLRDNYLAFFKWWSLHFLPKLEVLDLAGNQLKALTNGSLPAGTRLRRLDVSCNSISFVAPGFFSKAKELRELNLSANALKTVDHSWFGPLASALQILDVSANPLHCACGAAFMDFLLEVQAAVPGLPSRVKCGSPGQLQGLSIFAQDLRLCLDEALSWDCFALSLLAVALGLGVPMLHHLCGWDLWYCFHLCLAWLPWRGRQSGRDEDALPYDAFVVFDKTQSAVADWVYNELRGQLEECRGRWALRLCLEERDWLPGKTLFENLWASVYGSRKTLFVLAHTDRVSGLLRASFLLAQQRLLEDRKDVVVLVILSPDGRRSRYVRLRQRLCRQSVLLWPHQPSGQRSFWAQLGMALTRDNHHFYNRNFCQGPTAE
Description: TLR9 inhibition reporter assay (HEK-Blue cells, SEAP reporter, ODN2006 stimulation). The format is cell-based. Particulars: HEK-Blue cells overexpressing human TLR9, ODN2006 5 nM. Summed up:
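Human TLR7/8/9 HEK-Blue reporter lines; dose range 0.05 nM–50 μM; 30 min RT preincubation; stimulus gardiquimod 7.5 μM / R848 15.9 μM / ODN2006 5 nM respectively; 22 h, 37 °C; SEAP detected colorimetrically.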
A general note: A reporter such as luciferase makes a cellular process visible.

Turning to `COc1ccc(-c2[nH]c3ccc(C4CCN(C(=O)CNCC(F)(F)F)CC4)cc3c2C(C)C)cc1OC` [Example 221, 1-(4-(2-(3,4-dimethoxyphenyl)-3-isopropyl-1H-indol-5-yl)piperidin-1-yl)-2-((2,2,2-trifluoroethyl)amino)ethan-1-one], the IC50 in experiment [1] was 162 nM; in experiment [2], at least 50000 nM.

Turning to `COc1ccc(-c2[nH]c3ccc(C4CCN(C(=O)CN5CCCCC5C[C@@H]5CCCN5C)CC4)cc3c2C(C)C)cc1OC` (stereo partly drawn) [Example 225, 1-(4-(2-(3,4-dimethoxyphenyl)-3-isopropyl-1H-indol-5-yl)piperidin-1-yl)-2-(2-(((S)-1-methylpyrrolidin-2-yl)methyl)piperidin-1-yl)ethan-1-one], the figures for the IC50 in experiment [1] and in experiment [2] were 445 nM and 3230 nM, respectively.

`COc1ccc(-c2[nH]c3ccc(C4CCN(Cc5cccc(NS(C)(=O)=O)c5)CC4)cc3c2C(C)C)cc1OC` [Example 260, N-(3-((4-(2-(3,4-dimethoxyphenyl)-3-isopropyl-1H-indol-5-yl)piperidin-1-yl)methyl)phenyl)methanesulfonamide]: the results for the IC50 in experiment [1] and in experiment [2] were 64 nM and 2700 nM, respectively.

For the compound `COc1ccc(-c2[nH]c3ccc(C4CCN(Cc5nccs5)CC4)cc3c2C(C)C)cc1OC` [Example 261, 2-((4-(2-(3,4-dimethoxyphenyl)-3-isopropyl-1H-indol-5-yl)piperidin-1-yl)methyl)thiazole], the half-inhibitory concentration (IC50) in experiment [1] stood at 180 nM; in experiment [2], 5760 nM.

As to `COc1ccc(-c2[nH]c3ccc(C4CCN(Cc5ccc(-n6ccnc6)cc5)CC4)cc3c2C(C)C)cc1OC` [Example 263, 5-(1-(4-(1H-imidazol-1-yl)benzyl)piperidin-4-yl)-2-(3,4-dimethoxyphenyl)-3-isopropyl-1H-indole], the IC50 in experiment [1] was 82 nM; in experiment [2] it was 790 nM.

For the compound `COc1ccc(-c2[nH]c3ccc(C4CCN(Cc5cccc(C#N)c5)CC4)cc3c2C(C)C)cc1OC` [Example 264, 3-((4-(2-(3,4-dimethoxyphenyl)-3-isopropyl-1H-indol-5-yl)piperidin-1-yl)methyl)benzonitrile], the IC50 came to 364 nM in experiment [1] and 5090 nM in experiment [2].

With `CCC(CC)CN1CCC(c2ccc3[nH]c(-c4ccc(OC)c(OC)c4)c(C(C)C)c3c2)CC1` [Example 265, 2-(3,4-dimethoxyphenyl)-5-(1-(2-ethylbutyl)piperidin-4-yl)-3-isopropyl-1H-indole], the IC50 was 180 nM in experiment [1] and at least 50000 nM in experiment [2].

Consider `COc1ccc(-c2[nH]c3ccc(C4CCN(Cc5cccc(C(F)(F)F)c5)CC4)cc3c2C(C)C)cc1OC` [Example 269, 2-(3,4-dimethoxyphenyl)-3-isopropyl-5-(1-(3-(trifluoromethyl)benzyl)piperidin-4-yl)-1H-indole], for which the IC50 in experiment [1] is 2690 nM; in experiment [2], 18600 nM.

For `COc1ccc(-c2[nH]c3ccc(C4CCN(Cc5ccc(N(C)C)cc5)CC4)cc3c2C(C)C)cc1OC` [Example 270, 4-((4-(2-(3,4-dimethoxyphenyl)-3-isopropyl-1H-indol-5-yl)piperidin-1-yl)methyl)-N,N-dimethylaniline], the IC50 came to 191 nM in experiment [1] and 1940 nM in experiment [2].

On to `COc1ccc(-c2[nH]c3ccc(C4CCN(Cc5ccc(OC(F)(F)F)cc5)CC4)cc3c2C(C)C)cc1OC` [Example 271, 2-(3,4-dimethoxyphenyl)-3-isopropyl-5-(1-(4-(trifluoromethoxy)benzyl)piperidin-4-yl)-1H-indole], for which the figures for the IC50 in experiment [1] and in experiment [2] were 2380 nM and 10600 nM, respectively.

For the compound `COc1ccc(-c2[nH]c3ccc(C4CCNCC4)cc3c2C2CCOCC2)cc1OC` [Example 389, 2-(3,4-dimethoxyphenyl)-5-(piperidin-4-yl)-3-(tetrahydro-2H-pyran-4-yl)-1H-indole], the IC50 was 300 nM in experiment [1] and 1640 nM in experiment [2].

Regarding `COc1ccc(-c2[nH]c3ccc(C4CCN(C(=O)CN(C)C)CC4)cc3c2C2CCOCC2)cc1OC` [Example 393, 1-(4-(2-(3,4-dimethoxyphenyl)-3-(tetrahydro-2H-pyran-4-yl)-1H-indol-5-yl)piperidin-1-yl)-2-(dimethylamino)ethan-1-one], the IC50 was 248 nM in experiment [1] and 4850 nM in experiment [2].

Consider `COc1ccc(-c2[nH]c3ccc(C4CCN(CCN(C)C)CC4)cc3c2C)cc1OC` [Example 415, 2-(4-(2-(3,4-dimethoxyphenyl)-3-methyl-1H-indol-5-yl)piperidin-1-yl)-N,N-dimethylethan-1-amine], for which the IC50 in experiment [1] was 2130 nM; in experiment [2], 1070 nM.

`COc1ccc(-c2[nH]c3ccc(C4CCN(C5CCCN(CC(C)C)C5)CC4)cc3c2C)cc1OC` (stereo not drawn) [Example 416, 2-(3,4-dimethoxyphenyl)-5-(1′-isobutyl-[1,3′-bipiperidin]-4-yl)-3-methyl-1H-indole]: the half-maximal inhibitory concentration (IC50) in experiment [1] is 677 nM; in experiment [2] it was 291 nM.

Regarding `COc1ccc(-c2[nH]c3ccc(C4CCN(C5CCCN(CC(C)C)C5)CC4)cc3c2C)cc1OC` (stereo not drawn) [Example 417, 2-(3,4-dimethoxyphenyl)-5-(1′-isobutyl-[1,3′-bipiperidin]-4-yl)-3-methyl-1H-indole], the IC50 in experiment [1] is 1180 nM; in experiment [2], 565 nM.

Values taken from patent US11180474B2 (BRISTOL-MYERS SQUIBB COMPANY, priority 2016, dated 2021).
